This note sets out measurements from patent US10035806B2, “Derivatized corroles and metallocorroles and their use as imaging and therapeutic agents” (CALIFORNIA INSTITUTE OF TECHNOLOGY, priority 2015, dated 2018).

Series [1] has as its system MOLT-4. Kind of series: NCI60 anticancer drug screen. Format: cell-based, human. To be noted: MOLT-4 (Leukemia), 10 μM, 48 h. From the text:
The aminocaproate-substituted corrole Complex 3 was submitted to NCI for cytotoxic screening at a single high dose (10−5M) in a panel of 60 human tumor cell lines (NCI60). Details of the cytotoxicity assessment in the NCI anticancer drug screen have been described previously, in Monks A, et al. (1991) Feasibility of a high-flux anticancer drug screen using a diverse panel of cultured human tumor cell lines. J Natl Cancer Inst 83(11):757-766, this reference being incorporated by reference for these teachings.
In view of the promising results observed for carboxylated corroles, Complex 3 was selected for expanded cell screening to uncover additional susceptible cancer cell lines. The cytotoxic activity of Complex 3 was tested at a dose of 10^−5 M against 60 human cancer cell lines representing nine distinct tumor types in the anticancer screening program of the National Cancer Institute (NCI). The in vitro parameters for cytotoxicity, growth percent, and lethality were obtained for Complex 3 and reported as a mean graph of the percent growth of treated cells (FIG. 7). Bars in the mean graph depict the deviation of individual tumor cell lines from the overall mean value for all cells tested. Bars that project to the right of the mean represent cell lines that are more sensitive to Complex 3, whereas cell lines less sensitive to the compound display bars that project to the left.
The numerical values associated with this assay represent growth relative to the no-drug control and the numbers of cells at time 0 (FIG. 7). This allows detection of both growth inhibition (values between 0 and 100) and lethality (values less than 0). For example, a value of 100 signifies no growth inhibition, 40 means 60% growth inhibition, 0 means no net growth over the course of the experiment, −40 means 40% lethality, and −100 indicates all cells are dead. […] Growth inhibitions reflect cytostatic activity of the compound as previously shown for Complex 2. In contrast, cell lethality is only evident in melanoma cells, specifically the LOX IMVI and SK-MEL-28 cell lines.

A short description of series [2]: solubility in water. Format: physicochemical.

Structures are written as SMILES.

Regarding `O=C(O)CCCCCNc1c(F)c(F)c(C2=C3C=CC4=[N+]3[Ga-]35[n]6c2ccc6C(c2c(F)c(F)c(F)c(F)c2F)=c2ccc([n]23)=C(c2c(F)c(F)c(F)c(F)c2F)c2ccc4[n]25)c(F)c1F` (centres unmarked) [Complex 3], in series [1], the “Growth inhibition, %” value is 86.0%. Also, the solubility in water entry in series [2] was “easily solubilized in water”.
